Earlier results on two compounds are cited in paper PMC7837508, “Interactions of the Diazabicyclooctane Serine β-Lactamase Inhibitor ETX1317 with Target Enzymes” (ACS Infectious Diseases, 2020).

For data set [1], the target named is T1, CTX-M-15 (Escherichia coli, UniProt Q9EXV5).
T1 construct: made in house
Particulars: CTX-M-15, ambient temperature, pH 7.0, nitrocefin; ref 6 and 7; cited from earlier work.

For data set [2], the target named is T2, KPC-2 (Klebsiella pneumoniae, UniProt Q9F663).
T2 construct: made in house
T2 sequence (Q9F663 25-293, looked up, species assumed): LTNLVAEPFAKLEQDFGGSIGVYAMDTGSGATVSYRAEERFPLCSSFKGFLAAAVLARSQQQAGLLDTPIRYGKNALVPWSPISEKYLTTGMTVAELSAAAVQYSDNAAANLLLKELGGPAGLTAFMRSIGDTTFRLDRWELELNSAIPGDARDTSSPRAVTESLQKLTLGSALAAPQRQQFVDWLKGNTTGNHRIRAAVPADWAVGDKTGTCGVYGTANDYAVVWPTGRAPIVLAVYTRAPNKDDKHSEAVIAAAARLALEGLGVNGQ
Particulars: KPC-2, ambient temperature, pH 7.0, nitrocefin; ref 6 and 7; cited from earlier work.

Data set [3] deals with T3, SHV-5 (Klebsiella pneumoniae, UniProt P0A3M1).
T3 construct: made in house
T3 sequence (P0A3M1 22-286, species assumed): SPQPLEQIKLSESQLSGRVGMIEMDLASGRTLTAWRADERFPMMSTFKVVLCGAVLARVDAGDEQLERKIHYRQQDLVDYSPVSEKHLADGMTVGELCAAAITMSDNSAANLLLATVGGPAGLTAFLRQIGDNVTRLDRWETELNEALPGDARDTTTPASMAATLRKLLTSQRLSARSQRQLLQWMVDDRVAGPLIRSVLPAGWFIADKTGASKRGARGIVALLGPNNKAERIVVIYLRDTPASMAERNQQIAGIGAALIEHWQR
Particulars: SHV-5, ambient temperature, pH 7.0, nitrocefin; ref 6 and 7; cited from earlier work.

The target of data set [4] is T4, TEM-1 (Escherichia coli, UniProt P62593).
T4 construct: made in house
T4 sequence (P62593 24-286 limits assumed): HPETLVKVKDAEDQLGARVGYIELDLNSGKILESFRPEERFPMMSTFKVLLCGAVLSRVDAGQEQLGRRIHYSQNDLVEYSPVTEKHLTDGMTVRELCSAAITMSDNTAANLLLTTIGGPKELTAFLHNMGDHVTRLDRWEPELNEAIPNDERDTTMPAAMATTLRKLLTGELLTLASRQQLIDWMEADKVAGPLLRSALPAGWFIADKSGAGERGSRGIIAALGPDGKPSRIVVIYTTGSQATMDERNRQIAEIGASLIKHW
Details: method as in PMID 28665414, PMID 32658473. To be noted: TEM-1, ambient temperature, pH 7.0, nitrocefin; ref 6 and 7; cited from earlier work.

Data set [5] concerns the target T5, P. aeruginosa AmpC (Pseudomonas aeruginosa, UniProt P24735).
T5 construct: made in house
Particulars: ambient temperature, pH 7.0, nitrocefin, ref 6 and 7; cited from earlier work.

For data set [6], the target named is T6, E. cloacae P99 (Enterobacter cloacae, UniProt P05364).
T6 construct: made in house
T6 sequence (P05364 21-381): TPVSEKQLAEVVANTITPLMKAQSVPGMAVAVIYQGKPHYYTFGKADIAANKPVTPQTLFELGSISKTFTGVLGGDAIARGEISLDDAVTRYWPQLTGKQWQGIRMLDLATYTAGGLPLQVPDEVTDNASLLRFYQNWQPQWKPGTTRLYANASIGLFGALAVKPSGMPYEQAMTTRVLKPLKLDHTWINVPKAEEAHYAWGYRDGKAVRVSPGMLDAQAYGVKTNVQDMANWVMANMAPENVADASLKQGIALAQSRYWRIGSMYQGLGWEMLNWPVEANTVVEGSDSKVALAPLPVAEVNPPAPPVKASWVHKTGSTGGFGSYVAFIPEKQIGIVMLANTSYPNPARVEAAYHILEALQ
Particulars: cited from earlier work.

The next data set concerns the target OXA-10. To be noted: OXA-10, ambient temperature, pH 7.0, nitrocefin; ref 6 and 7; cited from earlier work.
The next data set deals with OXA-24. Particulars: OXA-24, ambient temperature, pH 7.0, nitrocefin; ref 6 and 7; cited from earlier work.
In data set [7] the target is T7, OXA-48 (Klebsiella pneumoniae, UniProt Q6XEC0).
T7 construct: made in house
T7 sequence (Q6XEC0 23-265, looked up, species assumed): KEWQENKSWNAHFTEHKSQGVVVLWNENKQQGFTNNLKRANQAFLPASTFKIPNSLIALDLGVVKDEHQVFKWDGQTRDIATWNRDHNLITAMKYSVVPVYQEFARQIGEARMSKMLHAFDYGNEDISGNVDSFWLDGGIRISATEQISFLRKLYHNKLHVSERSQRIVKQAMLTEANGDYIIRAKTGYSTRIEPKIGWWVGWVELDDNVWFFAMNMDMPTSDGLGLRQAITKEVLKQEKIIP
Particulars: OXA-48, ambient temperature, pH 7.0, nitrocefin; ref 6 and 7; cited from earlier work.

Another data set deals with OXA-23. Particulars: OXA-23, ambient temperature, pH 7.0, nitrocefin; ref 6 and 7; cited from earlier work.
Data set [8] has as its target T1, CTX-M-15. To be noted: cited from earlier work.
The target of data set [9] is T2, KPC-2. Particulars: cited from earlier work.
The target in data set [10] is T3, SHV-5. The arrangement: method as in PMID 28835096. To be noted: cited from earlier work.
In data set [11] the target is T4, TEM-1. To be noted: cited from earlier work.
The target of data set [12] is T5, P. aeruginosa AmpC. To be noted: cited from earlier work.
The target of data set [13] is T6, E. cloacae P99. To be noted: cited from earlier work. The source holds these as a separate data set.
Data set [14] has as its target T7, OXA-48. To be noted: OXA-48, 37 °C, discontinuous jump dilution method covering 6 h; cited from earlier work.

Read-outs that look alike come from different tables or passages of the source.

T5 sequence (P24735 27-397): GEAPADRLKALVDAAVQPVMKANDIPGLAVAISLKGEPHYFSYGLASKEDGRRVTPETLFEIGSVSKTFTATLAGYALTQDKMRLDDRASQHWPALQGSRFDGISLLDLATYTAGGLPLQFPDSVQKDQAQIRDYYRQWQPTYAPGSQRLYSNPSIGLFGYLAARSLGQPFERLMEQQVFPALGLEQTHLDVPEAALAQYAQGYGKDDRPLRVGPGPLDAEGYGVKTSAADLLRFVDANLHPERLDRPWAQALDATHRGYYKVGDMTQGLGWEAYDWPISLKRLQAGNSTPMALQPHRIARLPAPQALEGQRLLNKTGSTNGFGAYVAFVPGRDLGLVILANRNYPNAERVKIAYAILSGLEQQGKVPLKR
T1 sequence (Q9EXV5 29-291, species assumed): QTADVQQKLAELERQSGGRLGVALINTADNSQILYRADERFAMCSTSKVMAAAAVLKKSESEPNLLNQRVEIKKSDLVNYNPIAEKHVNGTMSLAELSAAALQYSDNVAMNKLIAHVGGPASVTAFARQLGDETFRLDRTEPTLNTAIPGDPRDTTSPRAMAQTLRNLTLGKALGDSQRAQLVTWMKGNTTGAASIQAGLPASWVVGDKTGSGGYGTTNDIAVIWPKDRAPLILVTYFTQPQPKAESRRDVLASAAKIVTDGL

Turning to `NC(=O)[C@@H]1CC[C@@H]2CN1C(=O)N2OS(=O)(=O)O` [avibactam], the kinact/Ki is 8 × 10^5 M^–1 s^–1 on CTX-M-15 [1]; 6 × 10^3 M^–1 s^–1 at KPC-2 [2]; 1 × 10^5 M^–1 s^–1 at SHV-5 [3]; 4 × 10^5 M^–1 s^–1 on TEM-1 [4]; 3 × 10^3 M^–1 s^–1 at P. aeruginosa AmpC [5]; 8 × 10^3 M^–1 s^–1 on E. cloacae P99 [6] (pH 7). For the same compound, the figures for the kinact/Ki on OXA-10, at OXA-24 and on OXA-48 [7] were 70 M^–1 s^–1, 80 M^–1 s^–1 and 5 × 10^3 M^–1 s^–1, respectively.

As to `CC1=C[C@@H]2CN(C(=O)N2OS(=O)(=O)O)[C@@H]1C(N)=O` [durlobactam], the kinact/Ki was 7 (±2) × 10^6 M^–1 s^–1 on CTX-M-15 [1]; 9.3 (±0.6) × 10^5 M^–1 s^–1 at KPC-2 [2]; 6.4 (±0.5) × 10^6 M^–1 s^–1 on SHV-5 [3]; 1.4 (±0.6) × 10^7 M^–1 s^–1 at TEM-1 [4]; 9 (±5) × 10^5 M^–1 s^–1 at P. aeruginosa AmpC [5]; 2.3 (±0.4) × 10^6 M^–1 s^–1 on E. cloacae P99 [6] (E. cloacae P99, ambient temperature, pH 7.0, nitrocefin, ref 6 and 7). For the same compound, the kinact/Ki on OXA-10 was 9 (±2) × 10^3 M^–1 s^–1; at OXA-23 it was 5.1 (±0.2) × 10^3 M^–1 s^–1; at OXA-24 it was 9 (±2) × 10^3 M^–1 s^–1; at OXA-48 [7] it was 8 (±2) × 10^5 M^–1 s^–1. In addition, the koff at CTX-M-15 [8] is recorded as 2.2 (±0.5) × 10^–4 s^–1; at KPC-2 [9], 1.0 (±0.1) × 10^–3 s^–1; at SHV-5 [10], 5.5 (±0.3) × 10^–4 s^–1; at TEM-1 [11] it was 1.4 (±0.2) × 10^–3 s^–1; on P. aeruginosa AmpC [12], 4 (±1) × 10^–3 s^–1; on E. cloacae P99 [13], 3.4 (±0.5) × 10^–4 s^–1. For the same compound, at OXA-48 [14], the koff was 2.5 (±0.3) × 10^–5 s^–1.
